According to US6911549B1, “Method of preparing a taxol derivative” (priority 1992, dated 2005):
Converted amounts (≈) assume the structure as drawn. Each block holds one molecule with its values, some of them ahead of it.

Legend:
L1210 leukemia = L1210 leukemia cell proliferation inhibition (Table 1, procedure of Li et al.); type: cell-based, mouse; conditions: drug concentration required to inhibit cell proliferation to 50% of untreated control cells; for IC50: Mus musculus, L1210, read-out: L1210 (IC50 μg/ml)
Source text: The biological activity of the compounds of this invention has been further confirmed using well known procedures against L1210 leukemia and the results set forth in Table I. The results were obtained using standard well known procedure (Li, L. H.; Kuentzel, S. L.; Murch, L. L.; Pschigoga, L. M.; and W. C. Krueger, “Comparative biological and biochemical effects of nogalamycin and its analogs on L1210 leukemia,” Cancer Res. 39:4816-4822 (1979)). The results are expressed as an IC50 which is the drug concentration required to inhibit cell proliferation to 50% of that of untreated control cells. Lower numbers indicated greater activity.

tubulin = assay: In vitro tubulin polymerization assay after Gaskin et al.; type: biochemical; conditions: in vitro at 20° C.; for induction of tubulin polymerization in vitro: compared with taxol
Source text: (§1) The biological activity of the 7-deoxy-7β,8β-methanotaxol compounds (Formula II) of the invention has been confirmed using well known procedures.
(§2) The biological activity of the 7-deoxy-7-halotaxol compounds (Formula III) of the invention has been confirmed using well known procedures.

[1] = system: A2780 (human ovarian carcinoma) cells; assay: Cytotoxicity in A2780 (human ovarian carcinoma) cells in culture (IC90); type: cell-based
Source text: as §2

[2] = system: L1210 mouse leukemia carcinoma cells; assay: Cytotoxicity in L1210 mouse leukemia carcinoma cells in culture (IC90); type: cell-based
Source text: as §1

Compound: CC(=O)OC1C(=O)C2(C)C(F)CC3OCC3(OC(C)=O)C2C(OC(=O)c2ccccc2)C2(O)CC(OC(=O)C(OC(=O)OCC(Cl)(Cl)Cl)C(NC(=O)c3ccccc3)c3ccccc3)C(C)=C1C2(C)C (stereo not shown) [Compound 13AA, 2′-{[(2,2,2-Trichloroethyl)-oxy]carbonyl}-7-deoxy-7-fluorotaxol]
L1210 (IC50 μg/ml) (L1210 leukemia): 0.054 µg/mL

L1210 (IC50 μg/ml) (L1210 leukemia): 0.015 µg/mL
Compound: CC(=O)O[C@H]1C(=O)[C@]2(C)C(F)C[C@H]3OC[C@@]3(OC(C)=O)[C@H]2[C@H](OC(=O)c2ccccc2)[C@]2(O)C[C@H](OC(=O)[C@H](OC(=O)OCC(Cl)(Cl)Cl)[C@@H](NC(=O)OC(C)(C)C)c3ccccc3)C(C)=C1C2(C)C (stereo partly shown) [Compound 13DA, N-Debenzoyl-N-(t-butyl)oxycarbonyl-2′-{[(2,2,2-trichloroethyl)oxy]carbonyl}-7-deoxy-7-fluorotaxol]

Compound: CC(=O)OC1C(=O)C23CC2CC2OCC2(OC(C)=O)C3C(OC(=O)c2ccccc2)C2(O)CC(OC(=O)C(OC(=O)OCC(Cl)(Cl)Cl)C(NC(=O)c3ccccc3)c3ccccc3)C(C)=C1C2(C)C (stereo not drawn) [Compound 14AA, 2′-{[(2,2,2-Trichloroethyl)oxy]carbonyl}-7-deoxy-7β,8β-methanotaxol]
L1210 (IC50 μg/ml) (L1210 leukemia): >0.1 µg/mL

Compound: CC(=O)O[C@H]1C(=O)C23C[C@@H]2CC2OC[C@@]2(OC(C)=O)C3[C@H](OC(=O)c2ccccc2)[C@]2(O)CC(OC(=O)C(OC(=O)OCC(Cl)(Cl)Cl)[C@@H](NC(=O)OC(C)(C)C)c3ccccc3)C(C)=C1C2(C)C (stereo partly drawn) [Compound 14DA, N-Debenzoyl-N-(t-butyl)oxycarbonyl-2′-{[(2,2,2-trichloroethyl)oxy]carbonyl}-7-deoxy-7β,8β-methanotaxol]
IC50 (L1210 leukemia): 0.012 µg/mL (≈ 0.0119 µM)

Compound: CC(=O)OC1C(=O)C2(C)C(F)CC3OCC3(OC(C)=O)C2C(OC(=O)c2ccccc2)C2(O)CC(OC(=O)C(O)C(NC(=O)OC(C)(C)C)c3ccccc3)C(C)=C1C2(C)C (stereo not shown) [Compound 20, N-Debenzoyl-N-(t-butyl)oxycarbonyl-7-deoxy-7-fluorotaxol]
L1210 (IC50 μg/ml) (L1210 leukemia): 0.0038 µg/mL

Compound: CC(=O)O[C@H]1C(=O)[C@]23C[C@H]2C[C@H]2OC[C@@]2(OC(C)=O)[C@H]3[C@H](OC(=O)c2ccccc2)[C@]2(O)C[C@H](OC(=O)[C@H](O)[C@@H](NC(=O)OC(C)(C)C)c3ccccc3)C(C)=C1C2(C)C [Compound 23, N-Debenzoyl-N-(t-butyl)oxycarbonyl-7-deoxy-7β,8β-methanotaxol]
L1210 (IC50 μg/ml) (L1210 leukemia): 0.0046 µg/mL

Compound: CC(=O)O[C@H]1C(=O)[C@@]2(C)C(F)C[C@H]3OC[C@@]3(OC(C)=O)[C@H]2[C@H](OC(=O)c2ccccc2)[C@]2(O)C[C@H](OC(=O)[C@H](O)[C@@H](NC(=O)NC(C)(C)C)c3ccccc3)C(C)=C1C2(C)C (stereo partly shown) [Compound 28, N-debenzoyl-N-(t-butyl)aminocarbonyl-7-deoxy-7-fluoro-taxol]
L1210 (IC50 μg/ml) (L1210 leukemia): 0.0055 µg/mL

Compound: CC(=O)O[C@H]1C(=O)[C@@]23CC2C[C@H]2OC[C@@]2(OC(C)=O)[C@H]3[C@H](OC(=O)c2ccccc2)[C@]2(O)C[C@H](OC(=O)[C@H](O)[C@@H](NC(=O)NC(C)(C)C)c3ccccc3)C(C)=C1C2(C)C (stereo partly drawn) [Compound 29, N-debenzoyl-N-(t-butyl)aminocarbonyl-7-deoxy-7β,8β-methano-taxol]
L1210 (IC50 μg/ml) (L1210 leukemia): 0.006 µg/mL

Compound: CC(=O)O[C@H]1C(=O)[C@]2(C)C(F)C[C@H]3OC[C@@]3(OC(C)=O)[C@H]2[C@H](OC(=O)c2ccccc2)[C@]2(O)CC(OC(=O)[C@H](O)[C@@H](NC(=O)c3ccccc3)c3ccccc3)C(C)=C1C2(C)C (stereo partly shown) [Compound IIIb, 7-Deoxy-7-fluorotaxol]
potency relative to taxol in tubulin polymerization assay (tubulin): approximately half as potent as taxol
induction of tubulin polymerization in vitro (tubulin): able to induce tubulin polymerization in vitro at 20 °C in a manner very similar to taxol
IC90 ([1]; Homo sapiens, A2780, read-out: IC90 (90% growth inhibitory concentration)): 0.016 µg/mL (≈ 0.0187 µM)
IC50 (L1210 leukemia): 0.01 µg/mL (≈ 0.0117 µM)

Compound: CC(=O)OC1C(=O)C23CC2CC2OCC2(OC(C)=O)C3C(OC(=O)c2ccccc2)C2(O)CC(OC(=O)C(O)C(NC(=O)c3ccccc3)c3ccccc3)C(C)=C1C2(C)C (stereo not drawn) [Compound IIb, 7-Deoxy-7β,8β-methanotaxol]
induction of tubulin polymerization in vitro (tubulin): able to induce tubulin polymerization in vitro at 20 °C in a manner very similar to taxol
IC90 (90% growth inhibitory concentration) [2]: 0.025 micrograms/ml
L1210 (IC50 μg/ml) (L1210 leukemia): 0.012 µg/mL

Compound: CC(=O)O[C@H]1C(=O)[C@@]2(C)[C@H]([C@H](OC(=O)c3ccccc3)[C@]3(O)C[C@H](OC(=O)[C@H](O)[C@@H](NC(=O)c4ccccc4)c4ccccc4)C(C)=C1C3(C)C)[C@]1(OC(C)=O)CO[C@@H]1C[C@@H]2O [Taxol]
IC90 (90% growth inhibitory concentration) ([1]; A2780 (human ovarian carcinoma) cells in culture): 0.007 micrograms/ml
IC90 (90% growth inhibitory concentration) [2]: 0.06 micrograms/ml
L1210 (IC50 μg/ml) (L1210 leukemia): 0.015 µg/mL

IC50 (L1210 leukemia): 0.004 µg/mL (≈ 0.00495 µM)
Compound: CC(=O)O[C@@]12CO[C@@H]1C[C@H](O)[C@@]1(C)C(=O)[C@H](O)C3=C(C)[C@@H](OC(=O)[C@H](O)[C@@H](NC(=O)OC(C)(C)C)c4ccccc4)C[C@@](O)([C@@H](OC(=O)c4ccccc4)[C@H]21)C3(C)C [Taxotere, reference compound]
